According to US8771965B2, “Methods and compositions involving nucleotide repeat disorders” (The Board of Regents of the University of Texas System, priority 2006, dated 2014):

B1: SKELETROPHIN: E3 ubiquitin ligase for Jagged2, overexpressed in DM1 myoblasts (protein, listed as Homo sapiens)
chain: MRWKCRVCLDYDLCTQCYMHNKHELAHAFDRYETAHSRPVTLSPRQGLPRIPLRGIFQGAKVVRGPDWEWGSQDGGEGKPGRVVDIRGWDVETGRSVASVTWADGTTNVYRVGHKGKVDLKCVGEAAGGFYYKDHLPRLGKPAELQRRVSADSQPFQHGDKVKCLLDTDVLREMQEGHGGWNPRMAEFIGQTGTVHRITDRGDVRVQFNHETRWTFHPGALTKALGRVGKVVKVFGDGNLRVAVAGQRWTFSPSCLVAYRPEEDANLDVAERARENKSSLSVALDKLRAQKSDPEHPGRLVVEVALGNAARALDLLRRRPEQVDTKNQGRTALQVAAYLGQVELIRLLLQARAGVDLPDDEGNTALHYAALGNQPEATRVLLSAGCRADAINSTQSTALHVAVQRGFLEVVRALCERGCDVNLPDAHSDTPLHSAISAGTGASGIVEVLTEVPNIDVTATNSQGFTLLHHASLKGHALAVRKILARARQLVDAKKEDGFTALHLAALNNHREVAQILIREGRCDVNVRNRKLQSPLHLAVQQAHVGLVPLLVDAGCSVNAEDEEGDTALHVALQRHQLLPLVADGAGGDPGPLQLLSRLQASGLPGSAELTVGAAVACFLALEGADVSYTNHRGRSPLDLAAEGRVLKALQGCAQRFRERQAGGGAAPGPRQTLGTPNTVTNLHVGAAPGPEAAECLVCSELALLVLFSPCQHRTVCEECARRMKKCIRCQVVVSKKLRPDGSEVASAAPAPGPPRQLVEELQSRYRQMEERITCPICIDSHIRLVFQCGHGACAPCGSALSACPICRQPIRDRIQIFV

Assays:
Type in all cases: cell-based, human
[1] = tested on: γ-secretase; assay: γ-secretase activity blocked in DM1 myoblasts, NOTCH1 level; conditions: pharmacological inhibition of γ-secretase
[2] = tested on: DM1 myoblasts; assay: Myogenic differentiation of treated DM1 myoblasts in differentiation media (myotubes, myogenin, MyoD)
Excerpt: The above findings supported the possibility that a significant amount of SKELETROPHIN remained bound with the mutant DMPK transcripts within DM1 nuclei, which results in diminished SKELETROPHIN activity in DM1. The attenuated SKELETROPHIN activity then manifests with an increase in JAGGED2 activity, leading to chronic activation of Notch signaling in DM1. Based on these findings we hypothesize that the activated Notch attenuates the ability of DM1 myoblasts to progress toward myogenic lineage, while facilitating their proliferation. To more critically test this idea, DMPK transcripts were targeted in DM1 myoblasts using siRNA and JAGGED2 and NOTCH1 expression was measured, in addition to an assessment of the cells' myogenic properties. DMPK transcripts were targeted to minimize interactions of SKELETROPHIN with CUG RNA, thereby increasing SKELETROPHIN activity. […] JAGGED2 and NOTCH1 levels were measured in the DMPK-siRNA-treated cells. […] In contrast, DM1 myoblasts treated with control siRNA formed fewer and shorter myotubes as well as basal myogenin expression under identical conditions.
Whether attenuating Notch signaling improves the myogenic potential of DM1 myoblasts was assessed. To achieve this goal, JAGGED2 was targeted in DM1 myoblasts with siRNA.
(§1) The above results support the idea that diminished SKELETROPHIN activity results in elevated Notch signaling and activated Notch impairs the efficacy of myoblast differentiation in DM1. To obtain more direct evidence for this interpretation, SKELETROPHIN was overexpressed in DM1 myoblasts and the Notch activity and their myogenic properties were assessed.
The progression of myogenesis was quantified by monitoring the expression of myogenic markers, myogenin and MyoD. […] In contrast, untreated DM1 myoblasts show reduced myogenin and MyoD even after prolonged incubation in differentiation media.

[3] = tested on: Notch signaling; assay: SKELETROPHIN overexpression in DM1 myoblasts, Notch activity
Procedure: as §1

| Molecule | NOTCH1 level [1] | MyoD expression [2] | formation of multinucleated myotubes [2] | myogenin expression [2] | NOTCH1 level [3] | Notch signaling ([3]; n=4, P=0.0031) |
| --- | --- | --- | --- | --- | --- | --- |
| CC(C)C[C@H](NC(=O)[C@H](Cc1ccccc1)C[C@@H](O)[C@H](Cc1ccccc1)NC(=O)OC(C)(C)C)C(=O)N[C@@H](Cc1ccccc1)C(N)=O [L-685458] | dose-dependent reduction | increase | higher propensity to form multi-nucleated myotubes | increase |  |  |
| B1 |  |  | a large number of these myoblasts differentiated | pronounced myogenin expressions | significant reduction | significant reduction |
